In the supplement of paper PMC13380429:

How the values were obtained:
Conditions in all cases: 72 h
Caco-2 [1] = test: cell viability relative to DMSO; higher = less toxic
Calu-3 [2] = test: as above
HepG2 [3] = test: as above
U2OS [4] = test: as above
Vero E6 [5] = test: as above
Caco-2 [6] = test: relative viability EC50 (midpoint between 100% and the lowest measured viability); higher = less toxic
Calu-3 [7] = test: as above
HepG2 [8] = test: as above
U2OS [9] = test: as above
Vero E6 [10] = test: as above
Caco-2 [11] = test: drug sensitivity score (DSS) for viability; higher = more toxic; extreme values may be limits of the assay
Calu-3 [12] = test: as above
HepG2 [13] = test: as above
U2OS [14] = test: as above
Vero E6 [15] = test: as above

SMILES | cell viability (Caco-2 [1]; 1 nM) [%] | cell viability (Caco-2 [1]; 10 nM) [%] | cell viability (Caco-2 [1]; 100 nM) [%] | cell viability (Caco-2 [1]; 1000 nM) [%] | cell viability (Caco-2 [1]; 10000 nM) [%] | cell viability (Calu-3 [2]; 1 nM) [%] | cell viability (Calu-3 [2]; 10 nM) [%] | cell viability (Calu-3 [2]; 100 nM) [%] | cell viability (Calu-3 [2]; 1000 nM) [%] | cell viability (Calu-3 [2]; 10000 nM) [%] | cell viability (HepG2 [3]; 1 nM) [%] | cell viability (HepG2 [3]; 10 nM) [%] | cell viability (HepG2 [3]; 100 nM) [%] | cell viability (HepG2 [3]; 1000 nM) [%] | cell viability (HepG2 [3]; 10000 nM) [%] | cell viability (U2OS [4]; 1 nM) [%] | cell viability (U2OS [4]; 10 nM) [%] | cell viability (U2OS [4]; 100 nM) [%] | cell viability (U2OS [4]; 1000 nM) [%] | cell viability (U2OS [4]; 10000 nM) [%] | cell viability (Vero E6 [5]; 1 nM) [%] | cell viability (Vero E6 [5]; 10 nM) [%] | cell viability (Vero E6 [5]; 100 nM) [%] | cell viability (Vero E6 [5]; 1000 nM) [%] | cell viability (Vero E6 [5]; 10000 nM) [%] | relative viability EC50 (Caco-2 [6]) [µM] | relative viability EC50 (Calu-3 [7]) [µM] | relative viability EC50 (HepG2 [8]) [µM] | relative viability EC50 (U2OS [9]) [µM] | relative viability EC50 (Vero E6 [10]) [µM] | drug sensitivity score (Caco-2 [11]) | drug sensitivity score (Calu-3 [12]) | drug sensitivity score (HepG2 [13]) | drug sensitivity score (U2OS [14]) | drug sensitivity score (Vero E6 [15])
O=C(c1cc(S(=O)(=O)Nc2ccccc2F)c(F)cc1Cl)N1CCN2CCC[C@@H]2C1 [ABT-639] | 95.2 | 97.8 | 98.9 | 94.9 | 104 | 103 | 104 | 99.8 | 106 | 96.1 | 94.4 | 106 | 87.2 | 105 | 92.5 | 99.1 | 97.4 | 99 | 95.1 | 99.5 | 102 | 98.9 | 97.8 | 100 | 100 | > 10 | > 10 | > 10 | > 10 | > 10 | 0 | 0 | 0 | 0 | 0
COc1cc2nccc(Oc3ccc(NC(=O)Nc4ccc(F)cc4F)c(F)c3)c2cc1OC [KI-8751] | 95.8 | 91.8 | 102 | 92.4 | 99.6 | 94.1 | 97.6 | 86.8 | 95.7 | 93.1 | 97.5 | 116 | 106 | 101 | 95.5 | 98.8 | 97.6 | 99.2 | 99.2 | 102 | 101 | 107 | 98.9 | 107 | 107 | > 10 | > 10 | > 10 | > 10 | > 10 | 0 | 0 | 0 | 0 | 0
CCCC[C@H](NC(C)=O)C(=O)N[C@H]1CC(=O)NCCCC[C@@H](C(=O)O)NC(=O)[C@H](Cc2c[nH]c3ccccc23)NC(=O)[C@H](CCCNC(=N)N)NC(=O)[C@@H](Cc2ccccc2)NC(=O)[C@H](Cc2c[nH]cn2)NC1=O [bremelanotide] | 114 | 94.4 | 85.7 | 90.8 | 117 | 99.1 | 104 | 90.8 | 100 | 96.2 | 115 | 118 | 95.7 | 102 | 98.9 | 99.9 | 102 | 95 | 104 | 101 | 100 | 102 | 108 | 99.3 | 107 | > 10 | > 10 | > 10 | > 10 | > 10 | 0 | 0 | 0 | 0 | 0
COC1(C[S@@+]([O-])c2ccccc2)CCN(CCc2c[nH]c3ccc(F)cc23)CC1 | 93.6 | 99.1 | 87.1 | 102 | 90.3 | 100 | 94.6 | 99 | 101 | 100 | 95.9 | 88.4 | 86.6 | 96.6 | 84.1 | 96.2 | 95.9 | 100 | 96.5 | 99.9 | 103 | 101 | 92.5 | 102 | 93.8 | > 10 | > 10 | > 10 | > 10 | > 10 | 0 | 0 | 0 | 0 | 0
CN1CCOC(c2ccccc2)c2ccccc2C1 (stereo not given) [nefopam] | 86.6 | 102 | 95.1 | 99.5 | 91.9 | 105 | 108 | 96.7 | 91 | 101 | 95.8 | 104 | 96.3 | 101 | 106 | 104 | 99.3 | 105 | 100 | 98.7 | 95.9 | 103 | 98.8 | 102 | 95.1 | > 10 | > 10 | > 10 | > 10 | > 10 | 0 | 0 | 0 | 0 | 0
Oc1cc2c(c(Cl)c1O)CCNCC2c1ccccc1 (stereo not given) | 99.2 | 94.9 | 85.4 | 90.9 | 95.5 | 95.1 | 106 | 97.7 | 106 | 91.1 | 93.2 | 100 | 100 | 103 | 86.8 | 100 | 97 | 102 | 97.8 | 104 | 104 | 106 | 103 | 104 | 98.6 | > 10 | > 10 | > 10 | > 10 | > 10 | 0 | 0 | 0.1 | 0 | 0
